Like-named read-outs stand apart in the source and are kept apart here.
Legend:
[1] = system: SCC9 cells; test: MTT cell viability (cytotoxicity) assay, SCC9; type: cell-based, human
Description: (§1) SCC cells (SCC9 and SCC4), derived from human tongue OSCC, were obtained by (ATCC® CRL-1629 and CRL-1624) and maintained in DMEM/F12 1:1 medium (Dulbecco’s modified Eagle’s medium and Ham’s F12 medium, Gibco (Thermo Fisher, Waltham, MA, USA), supplemented with 10% (v/v) FBS (Fetal Bovine Serum; Invitrogen, Thermo Fisher, Waltham, MA, USA) and 400 ng/mL hydrocortisone (Sigma-AldrichCo., St. Louis, MO, USA). Primary normal gingival fibroblast human (PCS201 018TM) and other tumor cells B16-F10 (CRL-6475), Hep G2 (HB-8065), and HT-29 (HTB-38) were also obtained at ATCC and maintained in DMEM supplemented with 10% (v/v) FCS. Cells were cultured in a humidified environment containing 5% CO2 at 37 °C. For all experiments, the compounds were solubilized in DMSO (Sigma-Aldrich) for a final concentration of 100 mM. From this dilution, other concentrations were made to carry out the cell viability assay. Carboplatin (Fauldcarbo®; Libbs Farmacêutica, São Paulo, SP, Brazil) was used as a control antitumor compound.
(§2) The viability of cancer cells and primary fibroblasts was tested using the MTT assay as described in MACHADO et al., 2021 [49]. Briefly, cancer cells (5 × 10^3 cells/well) were plated in duplicate in a 96-well plate, as indicated. DMSO was diluted in culture medium at the same concentrations and was used as a negative control, representing 100% cell viability. After 48 h of treatment, cells were incubated for 3.5 h with 5 mg/mL of MTT reagent (3,4,5-dimethiazol-2,5-diphenyltetrazoliumbromide) (Sigma-Aldrich Co., St. Louis, MO, USA) diluted in culture medium. Subsequently, the formazan crystals were dissolved by MTT solvent (50% Methanol and 50% DMSO), and the absorbance was read at 560 nm using the EPOCH microplate spectrophotometer (BioTekInstruments, Winooski, VT, USA).
(§3) IC50 values for the MTT assay were obtained by non-linear regression using GraphPad Prism 5.0 software (GraphPad, San Diego, CA, USA) from at least three independent experiments. Data are presented as means, ± standard deviation (SD). A log dose response (inhibitor) vs. response curve using the least square method was used to determine the IC50 and SD of the data. The selectivity index was calculated as: S.I. = IC50 of the compound in fibroblasts/IC50 of the same compound in tumor cells.

[2] = system: SCC4 cells; test: MTT cell viability assay, SCC4; type: cell-based, human
Description: as §1, §2, §3

[3] = system: Oral Tumor Cells (SCC9, SCC4); test: MTT cell viability assay, average of OSCC lines SCC9 and SCC4; type: cell-based, human
Description: as §1, §2
IC50 values for the MTT assay were obtained by non-linear regression using GraphPad Prism 5.0 software (GraphPad, San Diego, CA, USA) from at least three independent experiments. […] The selectivity index was calculated as: S.I. = IC50 of the compound in fibroblasts/IC50 of the same compound in tumor cells.

[4] = system: Primary Gingival Fibroblast; test: MTT cell viability assay, normal fibroblasts; type: cell-based, human; conditions: 48 h treatment
Description: as §1, §2, §3

[5] = system: mouse erythrocytes; set-up: method as in PMID 16163826; conditions: cited from earlier work
[6] = Homo sapiens, SCC-9, 48 h treatment, MTT, N.D. = not determined, not toxic to SCC cells, read-out: SCC9 IC50 (class N.D.)
[7] = Homo sapiens, Fibroblast, read-out: Primary Gingival Fibroblast IC50
[8] = Homo sapiens, Fibroblast, read-out: Primary Gingival Fibroblast IC50 (µg/mL)
[9] = Homo sapiens, SCC-9, 48 h treatment, MTT, read-out: SCC9 IC50
[10] = Homo sapiens, SCC-9, 48 h treatment, MTT, read-out: SCC9 IC50 (µg/mL)
[11] = Homo sapiens, SCC-4, 48 h treatment, calculated as in Table 1, no cytotoxic effect in SCC4, read-out: SCC4 IC50 (class N.D.)

COc1cc(C(=O)NCC(C)C)cc(OC)c1OC [Compound 14, N-Isobutyl-3,4,5–trimethoxybenzamide]
IC50 [1, 6]: > 1000 µM | melting point: 118 to 119 °C

COc1cc(C(=O)OC(C)C)cc(OC)c1OC [Compound 4, Isopropyl 3,4,5–trimethoxybenzoate]
IC50 ([2]; Homo sapiens, SCC-4, 48 h treatment, read-out: SCC4 IC50): 454 µM | IC50 ([3]; Homo sapiens): 376 µM | IC50 [4, 7]: 1800 µM | IC50 [4, 8]: 456 µg/mL | IC50 [1, 9]: 373 µM | IC50 [1, 10]: 94.9 µg/mL

CCCCCCCCCCOC(=O)c1cc(OC)c(OC)c(OC)c1 [Compound 8, Decyl 3,4,5–trimethoxybenzoate]
IC50 [1, 9]: 955 µM | IC50 [1, 10]: 337 µg/mL | melting point: 49 to 50 °C

CCCCCOC(=O)c1cc(OC)c(OC)c(OC)c1 [Compound 7, Pentyl 3,4,5–trimethoxybenzoate]
IC50 [4, 7]: 418 µM | IC50 [4, 8]: 118 µg/mL | IC50 [1, 9]: 258 µM | IC50 [1, 10]: 72.7 µg/mL

CCCCNC(=O)c1cc(OC)c(OC)c(OC)c1 [Compound 13, N-Butyl-3,4,5–trimethoxybenzamide]
IC50 [2, 11]: > 1000 µM | IC50 [4, 7]: 2360 µM | IC50 [4, 8]: 631 µg/mL | IC50 [1, 9]: 469 µM | IC50 [1, 10]: 125 µg/mL | melting point: 115 to 116 °C

COc1cc(C(=O)OCc2ccc3ccccc3c2)cc(OC)c1OC [Compound 11, 2-Methylnaphthalene 3,4,5–trimethoxybenzoate]
IC50 [4, 7]: 3410 µM | IC50 [4, 8]: 1200 µg/mL | IC50 [1, 9]: 310 µM | IC50 [1, 10]: 109 µg/mL | melting point: 84 to 85 °C

COc1cc(C(=O)NC2CCCCC2)cc(OC)c1OC [Compound 15, N-Cyclohexyl-3,4,5–trimethoxybenzamide]
IC50 [1, 6]: > 1000 µM | melting point: 179 to 180 °C

COC(=O)c1cc(OC)c(OC)c(OC)c1 [Compound 1, Methyl 3,4,5–trimethoxybenzoate]
IC50 [1, 9]: 858 µM | IC50 [1, 10]: 194 µg/mL

COc1cc(C(=O)NCc2ccccc2)cc(OC)c1OC [Compound 17, N-Benzyl-3,4,5–trimethoxybenzamide]
IC50 [1, 6]: > 1000 µM | melting point: 138 to 139 °C

COc1cc(C(=O)O)cc(OC)c1OC [3,4,5-Trimethoxybenzoic acid]
cytotoxic activity against SCC9 cells (in words) [1]: inactive | IC50 ([1]; Homo sapiens, SCC-9, 48 h, read-out: SCC9 IC50 (class N.D.)): > 1000 µM

COc1cc(/C=C/C(=O)N2CCC=CC2=O)cc(OC)c1OC [piplartine]
hemolytic activity [5]: did not reveal hemolytic activity

N.N.O=C([O-])C1(C(=O)[O-])CCC1.[Pt+2] [Carboplatin, reference compound]
IC50 ([2]; 48 h treatment, read-out: SCC4 IC50): 175 µM | IC50 [3]: 192 µM | Primary Gingival Fibroblast IC50 [4]: 190.19 µg/mL | IC50 ([4]; read-out: Primary Gingival Fibroblast IC50): 512 µM | SCC9 IC50 ([1]; 48 h treatment, MTT): 77.37 µg/mL | IC50 ([1]; 48 h treatment, MTT, read-out: SCC9 IC50): 208 µM

COc1cc(C(=O)OCCC(C)C)cc(OC)c1OC [Compound 6, Isopentyl 3,4,5–trimethoxybenzoate]
IC50 [4, 7]: 570 µM | IC50 [4, 8]: 161 µg/mL | IC50 [1, 9]: 160 µM | IC50 [1, 10]: 45.2 µg/mL

CCOC(=O)c1cc(OC)c(OC)c(OC)c1 [Compound 2, Ethyl 3,4,5–trimethoxybenzoate]
cytotoxic activity against SCC9 cells (in words) [1]: no cytotoxic activity | IC50 [1, 6]: > 1000 µM | melting point: 53 to 54 °C

COc1cc(C(=O)NCc2ccc(Cl)cc2)cc(OC)c1OC [Compound 19, N-4-Chlorobenzyl-3,4,5–trimethoxybenzamide]
IC50 [1, 6]: > 1000 µM | melting point: 157 to 158 °C

COc1cc(C(=O)NCc2ccc(F)cc2)cc(OC)c1OC [Compound 18, N-(4-Fluorobenzyl)-3,4,5–trimethoxybenzamide]
cytotoxic activity against SCC9 cells (in words) [1]: inactive | IC50 [1, 6]: > 1000 µM | melting point: 131 to 132 °C

COc1cc(C(=O)NCc2ccc(O)cc2)cc(OC)c1OC [Compound 16, N-4-Hydroxybenzyl-3,4,5–trimethoxybenzamide]
IC50 [1, 6]: > 1000 µM | melting point: 227 to 229 °C

CCCCOC(=O)c1cc(OC)c(OC)c(OC)c1 [Compound 5, Butyl 3,4,5–trimethoxybenzoate]
IC50 [4, 7]: 510 µM | IC50 [4, 8]: 137 µg/mL | IC50 [1, 9]: 204 µM | IC50 [1, 10]: 54.8 µg/mL

COc1cc(C(=O)OCc2ccc(Br)cc2)cc(OC)c1OC [Compound 10, 4-Bromo-benzyl 3,4,5–trimethoxybenzoate]
cytotoxic activity against SCC9 cells (in words) [1]: no cytotoxic activity | IC50 [1, 6]: > 1000 µM | melting point: 104 to 105 °C

COc1cc(C(=O)OC(c2ccccc2)c2ccccc2)cc(OC)c1OC [Compound 12, Diphenyl 3,4,5–trimethoxybenzoate]
IC50 [1, 9]: 830 µM | IC50 [1, 10]: 314 µg/mL | melting point: 57 to 58 °C

CCCOC(=O)c1cc(OC)c(OC)c(OC)c1 [Compound 3, Propyl 3,4,5–trimethoxybenzoate]
IC50 [2, 11]: > 1000 µM | IC50 [4, 7]: 1260 µM | IC50 [4, 8]: 319 µg/mL | IC50 [1, 9]: 299 µM | IC50 [1, 10]: 76 µg/mL | melting point: 34 to 35 °C

Reference: article PMC9964404, “Molecular Modeling and In Vitro Evaluation of Piplartine Analogs against Oral Squamous Cell Carcinoma” (Molecules, 2023)
